Laboratory results as given in patent publication US11590130B2, “Combinations of a tubulin polymerization inhibitor and a poly (ADP-ribose) polymerase (PARP) inhibitor for use in the treatment of cancer” (NOVIGA RESEARCH AB, priority 2018, dated 2023).

Experiments:
[1] = test system: patient-derived xenograft Ov10584; assay: Anti-tumor efficacy of NOV202 with olaparib vs. plinabulin with olaparib in patient-derived xenograft of ovarian cancer (Example 2); assay type: in vivo; settings: NMRI:nu/nu mice, Ov10584 s.c.; NOV202 30 mg/kg PO and olaparib 100 mg/kg PO once a day days 6-19; plinabulin 7.5 mg/kg i.p. days 1, 4, 8, 11, 15; combinations same dosage and schedule
Source text: A Study of Anti-Tumor Efficacy of Combination of NOV202 with Olaparib Vs. Combination Plinabulin with Olaparib in a Patient-Derived Xenograft of Ovarian Cancer ([…])
NMRI:nu/nu female (Janvier) mice (8 weeks old) were used as follows: 4 animals in the vehicle group, 4 animals in NOV202 group, olaparib group, plinabulin group, in the combination group of NOV202 and Olaparib, and in the combination group of plinabulin and olaparib, respectively. NOV202 was synthesized as described in WO 2012/127032. Olaparib was purchased from LC Laboratories, and plinabulin was purchased from Sellechem. The patient-derived xenograft Ov10584 was used at passage number 4. All mice received tissue fragments of 2×2 mm subcutaneously into the left flank at day 0, and tumors were allowed to reach palpable sizes of 108 mm^3 (mean) (the study day 6) prior to start the treatments. NOV202 group was administered PO at a dose 30 mg/kg and olaparib group was administered PO at a dose 100 mg/kg, and plinabulin was administered i.p. at a dose 7.5 mg/kg. The combination of NOV202 and olaparib group had the same dosage and schedule as in monotherapy, NOV202 was given in the morning (5 ml/kg) and olaparib in the afternoon (10 ml/kg). The combination of plinabulin and olaparib group had also the same dosage and schedule as in monotherapy. NOV202 and olaparib was administered 14 days once a day (days 6-19), and plinabulin was administered days 1, 4, 8, 11, 15 once a day. The tumor volumes and body weights of animals were measured at regular intervals (day 6, 7, 9, 12, 14, 16, 19, 23, 26 and 29), all groups.

[2] = test system: A2780/Adr multidrug resistant OC cell line; assay: Activity in multidrug resistant OC cells; assay type: cell-based, human; settings: A2780/Adr overexpresses P-glycoprotein efflux transporters
Source text: (§1) Compounds of Formula I, including NOV202, exerts its action by inhibition of tubulin polymerization and thereby the assembly of microtubule structures, which cause a cell cycle arrest and cell death via apoptosis. […] The A2780/Adr multidrug resistant OC cell line overexpresses the P-glycoprotein efflux transporters which confer multidrug resistance.

[3] = test system: patient-derived xenograft of ovarian cancer (Ov10584); assay: Anti-tumor efficacy of NOV202 alone and in combination with olaparib in patient-derived xenograft of ovarian cancer (Example 1); assay type: in vivo; settings: for T/C (tumor/control) value: NMRI:nu/nu mice, Ov10584 s.c., once a day for 14 days (days 8-22), combination same dosage and schedule
Source text: A Study of Anti-Tumor Efficacy of NOV202 Alone and in Combination with Olaparib in a Patient-Derived Xenograft of Ovarian Cancer (Ov10584)
NMRI:nu/nu female (Janvier) mice (8 weeks old) were used as follows: 4 animals in the vehicle group, 4 animals in NOV202 group, Olaparib group and in the combination group of NOV202 and olaparib, respectively. NOV202 was synthesized as described in WO 2012/127032. Olaparib was purchased from LC Laboratories. The patient-derived xenograft Ov10584 was used at passage number 7. All mice received tissue fragments of 2×2 mm subcutaneously at day 0, and tumors were allowed to reach palpable sizes of 118 mm^3 (mean) (the study day 8) prior to start the treatments. NOV202 group was administered PO at a dose 30 mg/kg and olaparib group was administered PO at a dose 100 mg/kg. The combination of NOV202 and olaparib group had the same dosage and schedule as in monotherapy. NOV202 was given in the morning (5 ml/kg) and olaparib in the afternoon (10 ml/kg). All three groups were administered 14 days once a day (days 8-22). The tumor volumes and body weights of animals were measured at regular intervals (day 7, 9, 13, 15, 19, 22, 27, all groups, and continued to measure the combination group day 29, 33, 36, 40, 43, 47, 50, 54, 57).

[4] = test system: ovarian cancer (OC) cell line A2780; assay: Anti-proliferative activity in human cancer cell lines; assay type: cell-based; settings: A2780 cells
Source text: as §1

human OC xenograft model = assay: In vivo efficacy study in a human OC xenograft model
Source text: Development of the tumour vasculature system is essential to tumour growth and metastatic spread of malignant cells. The rationale behind using vasculature targeting agents in anti-cancer therapy is that the cancer cells will be deprived of essential nutrients and oxygen supply for their growth and spread, thereby improving treatment outcome.

[5] = NOV202 30 mg/kg PO, olaparib 100 mg/kg PO

SMILES	T/C (tumor/control) value [1]	effectiveness in multidrug resistant versus isogenic non-resistant OC cells [2]	T/C (tumor/control) value [3, 5]	tolerability ([3]; daily treatment for 14 days, NOV202 30 mg/kg PO, olaparib 100 mg/kg PO)	body weight loss ([3]; one day after treatment stop, 30 mg/kg NOV202 daily for 14 days, mice recovered soon)	anti-proliferative activity [4]	suppression of tumour growth (human OC xenograft model; human OC xenograft, similar to paclitaxel in this model)	tolerability (human OC xenograft model; oral gavage over a period of 20 days)
COc1ccc2[nH]cc(CCNc3nccc(Nc4cccc5c4ccn5C)n3)c2c1 [NOV202, N^2-[2-(5-methoxy-1H-indol-3-yl)ethyl]-N^4-(1-methyl-1H-indol-4-yl)pyrimidine-2,4-diamine]	32%	as effective in multidrug resistant OC cells as in the isogenic (drug sensitive variant) non-resistant OC cells	37%	well tolerated	6%	very potent	up to 80%	well tolerated
O=C(c1cc(Cc2n[nH]c(=O)c3ccccc23)ccc1F)N1CCN(C(=O)C2CC2)CC1 [olaparib, 4-(3-{[4-(cyclopropylcarbonyl)piperazin-1-yl]carbonyl}-4-fluorobenzyl)phthalazin-1(2H)-one, reference compound]	45%	–	20%	–	–	–	–	–
CC(C)(C)c1[nH]cnc1/C=c1\[nH]c(=O)/c(=C/c2ccccc2)[nH]c1=O [plinabulin, (3Z,6Z)-3-Benzylidene-6-{[5-(2-methyl-2-propanyl)-1H-imidazol-4-yl]methylene}-2,5-piperazinedione]	58%	–	–	–	–	–	–	–
